Values of other authors in US4672107A, “Cell growth inhibitor and method” (Inbex, Inc., priority 1985, dated 1987).

Test system: human embryonic palatal mesenchymal cells
Settings: Yoneda and Pratt, Science 1981

Substance: Epidermal Growth Factor (NSDSECPLSHDGYCLHDGVCMYIEALDKYACNCVVGYIGERCQYRDLKWWELR; Epidermal growth factor; UniProt P01133 971-1023, looked up) [Epidermal Growth Factor (EGF)]
- stimulation of incorporation of 3[H]-thymidine into newly synthesized DNA: a little more than twofold
